Data set [1] deals with Hepatitis A virus (HAV) strain HM-175. In words: Virucidal effect of peptides on HAV (residual infectivity by TCID50 titration on Frp3 cells). In kind it is cell-based. The following applies: for Viral Titre after Treatment: titration on Frp3 cells; for Viral Titre after Treatment / LRV (log reduction value): mean ± SD, triplicate. An excerpt: (§1) Murine norovirus strain 1 (MNV-1) was used as a surrogate for human norovirus (NoV). The virus was replicated in RAW 264.7 cells (murine macrophage cell line) cultured in Dulbecco’s modified Eagle’s medium (DMEM) supplemented with 1% glutamine, 1% non-essential amino acids, and 2% fetal bovine serum (FBS). Hepatitis A virus (HAV) strain HM-175 was replicated in Frp3 cells (non-human primate cell line derived from fetal kidney) cultured in minimum essential medium (MEM) with Earle’s salts supplemented with 1% glutamine, 2% non-essential amino acids, and 2% FBS. Both viruses were incubated in 5% CO2 at 37 °C. All cell culture media were provided by EuroClone (Milan, Italy). The viral suspensions were prepared by freeze and thaw lysis (1 cycle for MNV-1 and 3 cycles for HAV) of infected monolayers, clarified using low-speed centrifugation (800× g) to remove residual cell debris, then divided in aliquots, and stored at −80 °C until use.
(§2) Solutions 40 µM and 80 µM of each peptide of the panel (RiLK1, RiLK3, RiLK30, 1018-K6, MTP1, and AVP2) were chosen for the virucidal tests. HAV and MNV-1 were assayed at a concentration of 4.7 ± 0.2 log TCID50/mL and 4.5 ± 0.2 log TCID50/mL, respectively. The suspensions containing the peptides and viruses were incubated for 1 h at room temperature (RT,20 ± 2 °C) and 4 °C. These temperatures were chosen to simulate the use of sanitizing solutions in food production/processing environments. Residual viral infectivity was evaluated by titration (TCID50/mL) on Frp3 cells for HAV and on RAW 264.7 cells for MNV-1. Untreated HAV and MNV-1 suspensions and 40 µM and 80 µM AMP solutions, incubated at the same conditions, were used as controls. Each treatment condition was assayed in triplicate. For titration, 100 µL of serial tenfold dilutions of each sample were assayed in 24-well tissue culture plates containing 24–48 h cell monolayers and incubated for 1 h in 5% CO2 at 37 °C. After that, the wells were washed twice with 200 µL of PBS, and 500 µL of DMEM/MEM, supplemented with 2% of FBS, were was added to each well; MNV-1 and HAV incubations were carried for up to 6 days and 14 days, respectively, in 5% CO2 at 37 °C with daily visual inspection to determine the cytopathic effect. The virucidal efficacy of AMPs was estimated by comparing the titers of treated and untreated viral suspensions.
(§3) For each treatment, the average and standard deviation of the triplicate analyses were calculated. The virucidal effects of AMPs was assessed by calculating the log reduction value (LRV), i.e., the difference between the infectious titer (log-transformed) of untreated versus treated samples. The statistical significance of differences between treated and untreated samples was determined through one-way analysis of variance (ANOVA) with Bonferroni post hoc comparisons, with a significance level of p < 0.05 (GraphPad Prism v9.5.0, software San Diego, CA, USA).

The test system of data set [2] is Murine norovirus strain 1 (MNV-1). In kind it is cell-based. The following applies: for Viral Titre after Treatment: titration on RAW 264.7 cells; for Viral Titre after Treatment / LRV (log reduction value): mean ± SD, triplicate.
Description: as §1, §2, §3

A further data set deals with Salmonella Napoli. Description: Antibacterial assay, Salmonella Napoli. The settings on record: even at the highest concentration tested (80 µM), 6 h at 37 °C. In kind it is cell-based. The source says: (§4) The monophasic variant of Salmonella Typhimurium, Salmonella Napoli, and Campylobacter jejuni were isolated by the Laboratory of Microbiological Food Control—Department of Food Microbiology of the Istituto Zooprofilattico Sperimentale del Mezzogiorno in Portici (Naples, Italy) in raw and processed foodstuffs of animal origin. Specifically, the monophasic variant of S. Typhimurium and S. Napoli were isolated from bivalve mollusks, while C. jejuni was isolated from poultry meat. Bacterial cells were cultured at 37 °C in the appropriate culture media (S. Typhimurium and S. Napoli in buffered peptone water (Thermo Fisher, Milan, Italy) and C. jejuni in Bolton Broth (Oxoid, Madrid, Spain)) until collection and then diluted in fresh broth to a final concentration of 1.5 × 10^3 colony forming units (CFUs)/mL. Thereafter, peptide stock solutions in DMSO were added to the bacterial suspension at the same concentrations used in the virucidal assays (40 and 80 µM) and incubated at 37 °C for 6 h. Samples containing only cell suspension and DMSO were used as controls. […]

The subject of another data set is Campylobacter jejuni. Format: cell-based. The settings on record: peptide 40 and 80 µM, 6 h at 37 °C.
Description: as §4

For data set [3] the following is noted: pH 2; cited from earlier work. How it is done: In this context, to acquire important information on how the conformational properties of peptides might influence the structure–function relationships and their distinct membrane interaction profiles, the propensity of the new peptides, RiLK30 and AVP2, to adopt a defined secondary structure and to undergo conformational changes were examined by circular dichroism and fluorescence spectroscopy. These analyses were performed in the presence of a negatively charged SDS that is commonly used as a biomimetic membrane model to study the structural features of membranotropic molecules. In previous ...

[4] abbreviates: HAV + peptide 40 µM, 1 h at RT (20 ± 2 °C).
Setting [5] is: HAV + peptide 80 µM, 1 h at RT (20 ± 2 °C).
[6] abbreviates: MNV-1 + peptide 40 µM, 1 h at 4 °C.
The mark [7] stands for this setting: MNV-1 + peptide 40 µM, 1 h at RT (20 ± 2 °C).
Setting [8] is: MNV-1 + peptide 80 µM, 1 h at RT (20 ± 2 °C).

Like-named read-outs stand apart in the source and are kept apart here.

On to “KVSGVLFGTGLWVAL-NH2 [MTP1, previously designed 15-residue antimicrobial peptide, C-terminally amidated]”, for which the “Viral Titre after Treatment” value in data set [1] (HAV 4.7 ± 0.2 log TCID50/mL + peptide 80 µM, 1 h at 4 °C) was 3.8 ± 0.2 logTCID50/mL; in data set [1] (HAV + peptide 40 µM, 1 h at 4 °C), 3.6 ± 0.3 logTCID50/mL; in data set [1] (setting [4]), 3.2 ± 0.2 logTCID50/mL; in data set [1] (setting [5]) it was 3.5 ± 0.1 logTCID50/mL; in data set [2] (MNV-1 4.5 ± 0.2 log TCID50/mL + peptide 80 µM, 1 h at 4 °C), 4.5 ± 0.1 logTCID50/mL; in data set [2] (setting [6]), 4.4 ± 0.1 logTCID50/mL. In addition, the “Viral Titre after Treatment” value in data set [2] (setting [7]) and in data set [2] (setting [8]) was 4.5 ± 0.2 logTCID50/mL throughout. Besides, the “LRV (log reduction value)” value in data set [1] (HAV + peptide 40 µM, 1 h at 4 °C, untreated minus treated titre) was determined as 1.1 ± 0.2 logTCID50/mL; in data set [1] (setting [4]), 1.5 ± 0.4 logTCID50/mL; in data set [1] (HAV + peptide 80 µM, 1 h at 4 °C, untreated minus treated titre), 0.9 ± 0.4 logTCID50/mL; in data set [1] (setting [5]) it was 1.2 ± 0.3 logTCID50/mL; in data set [2] (setting [6]), 0.1 ± 0.3 logTCID50/mL; in data set [2] (setting [7]) it was 0 ± 0.4 logTCID50/mL. Besides, the “LRV (log reduction value)” value in data set [2] (MNV-1 + peptide 80 µM, 1 h at 4 °C) is listed as 0 ± 0.3 logTCID50/mL; in data set [2] (setting [8]) it was 0 ± 0.4 logTCID50/mL. The “decrease of HAV infectious titer” value in data set [1] (maximum reduction, corresponding to the highest LRV) is recorded as “up to 97.3%”. Further, the “virucidal activity toward MNV-1 (in words)” value in data set [2] (40 and 80 µM, 4 °C and RT) is listed as “no significant effects”. Moreover, in the data set with Salmonella Napoli, the “bactericidal activity (growth inhibition on selective plates)” value is reported as “no detectable killing effects”. The “inhibitory activity against Campylobacter jejuni (in words)” value with Campylobacter jejuni is listed as “did not display any inhibitory activity”. Moreover, the structural stability result in data set [3] is “high structural stability”.

The values above are taken from publication PMC11124387, “A Reliable Multifaceted Solution against Foodborne Viral Infections: The Case of RiLK1 Decapeptide” (Molecules, 2024).
